According to patent US9365588B2, “Benzoxazines as modulators of ion channels” (Vertex Pharmaceuticals Incorporated, priority 2011, dated 2016):

Biological target: human NaV 1.7 (Homo sapiens, UniProt Q15858)
Test: E-VIPR optical membrane potential assay with electrical stimulation
Assay type: cell-based
Conditions: sodium channel inhibition; read-out: Binned Activity Data (IC50)
How it was run: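 Membrane-potential read-out: background-subtracted 460 nm/580 nm ratio during a 9 s current-controlled stimulus, 400 Hz scan. Before stimulation, NaV1.7-HEK cells carried coumarin/oxonol dye and compound (final DMSO 0.625%) for 20–35 min at room temperature; tetracaine 125 μM served as positive control.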

Chain of human NaV 1.7 (Q15858 whole entry): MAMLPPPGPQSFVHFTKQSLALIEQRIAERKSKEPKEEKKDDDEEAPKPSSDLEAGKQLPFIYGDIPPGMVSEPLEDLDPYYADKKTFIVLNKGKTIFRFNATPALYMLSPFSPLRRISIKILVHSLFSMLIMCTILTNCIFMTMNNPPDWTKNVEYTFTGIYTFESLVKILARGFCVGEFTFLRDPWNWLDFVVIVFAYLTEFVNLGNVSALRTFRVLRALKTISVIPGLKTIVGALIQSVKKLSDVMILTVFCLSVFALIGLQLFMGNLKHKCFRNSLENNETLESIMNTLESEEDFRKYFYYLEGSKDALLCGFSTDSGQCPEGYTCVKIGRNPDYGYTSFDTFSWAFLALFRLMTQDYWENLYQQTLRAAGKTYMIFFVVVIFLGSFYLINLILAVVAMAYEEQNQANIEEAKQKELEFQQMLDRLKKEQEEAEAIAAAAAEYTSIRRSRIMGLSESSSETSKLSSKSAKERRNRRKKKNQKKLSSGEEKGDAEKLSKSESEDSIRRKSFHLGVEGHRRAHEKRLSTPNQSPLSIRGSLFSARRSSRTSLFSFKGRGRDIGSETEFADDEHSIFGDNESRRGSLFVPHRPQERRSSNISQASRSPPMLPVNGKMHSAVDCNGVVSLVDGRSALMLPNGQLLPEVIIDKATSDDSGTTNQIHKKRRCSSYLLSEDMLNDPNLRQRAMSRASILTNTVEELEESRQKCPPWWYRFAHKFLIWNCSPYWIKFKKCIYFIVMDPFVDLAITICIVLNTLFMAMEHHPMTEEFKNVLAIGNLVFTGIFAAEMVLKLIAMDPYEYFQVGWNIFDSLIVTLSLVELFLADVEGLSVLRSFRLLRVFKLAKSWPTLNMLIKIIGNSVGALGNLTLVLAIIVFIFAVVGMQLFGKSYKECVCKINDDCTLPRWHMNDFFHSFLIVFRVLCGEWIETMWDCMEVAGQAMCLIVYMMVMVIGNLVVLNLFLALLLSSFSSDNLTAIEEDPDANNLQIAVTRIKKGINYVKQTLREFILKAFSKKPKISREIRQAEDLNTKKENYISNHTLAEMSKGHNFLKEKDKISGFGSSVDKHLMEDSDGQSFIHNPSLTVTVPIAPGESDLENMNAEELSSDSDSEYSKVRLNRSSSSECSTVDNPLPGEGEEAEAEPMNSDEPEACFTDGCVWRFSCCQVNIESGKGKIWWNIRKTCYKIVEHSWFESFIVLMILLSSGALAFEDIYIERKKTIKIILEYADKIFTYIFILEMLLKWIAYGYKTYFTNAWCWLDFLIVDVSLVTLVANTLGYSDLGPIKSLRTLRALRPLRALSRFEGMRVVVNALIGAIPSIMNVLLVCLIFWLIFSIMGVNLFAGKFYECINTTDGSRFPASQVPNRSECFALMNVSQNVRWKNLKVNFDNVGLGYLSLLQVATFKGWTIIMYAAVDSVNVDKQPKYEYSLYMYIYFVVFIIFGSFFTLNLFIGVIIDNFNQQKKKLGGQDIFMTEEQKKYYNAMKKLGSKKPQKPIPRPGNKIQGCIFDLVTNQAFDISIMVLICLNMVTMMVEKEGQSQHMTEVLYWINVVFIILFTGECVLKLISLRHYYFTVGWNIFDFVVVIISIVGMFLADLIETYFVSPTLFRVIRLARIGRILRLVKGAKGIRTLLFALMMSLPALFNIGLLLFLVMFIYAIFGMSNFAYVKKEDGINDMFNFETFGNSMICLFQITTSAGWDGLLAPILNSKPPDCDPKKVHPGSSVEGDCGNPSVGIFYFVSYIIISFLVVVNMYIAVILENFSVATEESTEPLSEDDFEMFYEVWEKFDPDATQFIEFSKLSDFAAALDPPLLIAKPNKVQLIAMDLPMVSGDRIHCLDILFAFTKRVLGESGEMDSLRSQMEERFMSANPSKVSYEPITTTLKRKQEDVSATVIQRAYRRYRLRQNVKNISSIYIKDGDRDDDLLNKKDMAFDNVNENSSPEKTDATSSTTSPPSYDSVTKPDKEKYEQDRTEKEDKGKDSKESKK

SMILES | IC50 [nM]
COc1ccc(-n2ncc(C(=O)N3CCC4(CC3)Oc3ccccc3-c3c4cnn3C)c2C)cc1 [Compound 601] | ≤ 2000
COc1cc(C(=O)N2CCC3(CC2)Oc2ccccc2-n2c(C#N)ccc23)ccc1OCC(C)C [Compound 755] | ≤ 2000
Cc1ccc(C(=O)N2CCC3(CC2)Oc2ccccc2-c2c3cnn2C)c(Cl)c1 [Compound 773] | ≤ 2000
O=C(c1ccc(S(=O)(=O)NC2CC2)cc1)N1CCC2(CC1)Oc1ccccc1-n1cccc12 [Compound 209] | ≤ 2000
COc1cc(C(=O)N2CCC3(CC2)Oc2ccccc2-c2c3cnn2C)ccc1OC(C)C [Compound 256] | ≤ 2000
Cn1ncc2c1-c1ccccc1OC21CCN(C(=O)c2cc3ccccc3n2C)CC1 [Compound 317] | > 5000
